# Laboratory results reported in patent publication US8492148B2, “Method for amplification of endothelial progenitor cell in vitro” (Foundation for Biomedical Research & Innovation, priority 2005, dated 2013).
# Entries after “also recorded” stand apart in the source; their conditions may differ.
# Test system: cord blood CD133 positive cell-derived EPC
# Test: EPC colony assay (methylcellulose medium containing physiologically active substances)
# Type: cell-based
# Conditions: 1 μM TGF-β inhibitor in serum-free culture medium (compared with 0, 0.1, 10 μM); cultivation for 2 weeks
# Experimental: Using the serum-free culture media of the present invention containing various concentrations of TGF-β inhibitor as prepared in Example 1, cord blood CD133 positive cell-derived EPC was expanded in vitro and differentiated. The degree of expansion was evaluated by counting the number of colonies, and the degree of differentiation was evaluated by separately counting the number of colonies of blood lineage cell and that of EPC. For EPC colony, moreover, large cell colonies and small cell colonies were separately counted, as well as the total number of EPC colonies was counted.
# The cord blood-derived mononuclear cells were collected and cultivated in a serum-free culture medium in the same manner as in Example 1. […]
# The number of colonies confirmed to be the EPC colonies was counted. The total number of colonies, the number of small cell colonies and the number of large cell colonies were separately counted.
# For the blood lineage colony, the number of colonies of four kinds of colonies: erythroid burst-forming unit colony (BFU-E), granulocyte-macrophage lineage colony-forming unit colony (CFU-GM), macrophage colony-forming unit colony (CFU-M) and mixed colony (CFU-GEM) was added, and the appearance frequency thereof was determined over time. […]
compound,measurement,value
"NC(=O)c1ccc(-c2nc(-c3ccc4c(c3)OCO4)c(-c3ccccn3)[nH]2)cc1 [TGF-β inhibitor, 4-(5-benzo[1.3]dioxol-5-yl-4-pyridin-2-yl-1H-imidazol-2-yl)-benzamide]",number of EPC colonies per Dish and total number of EPC colonies,at maximum; also recorded: largest number of EPC colonies
